{"source": "the supplement of paper PMC10307832"}
{"compound": "O=C(Nc1cc(C(F)(F)F)cc(C(F)(F)F)c1)c1cc(Cl)ccc1O [IMD-0354] + CS(=O)(=O)CCNCc1ccc(-c2ccc3ncnc(Nc4ccc(OCc5cccc(F)c5)c(Cl)c4)c3c2)o1 [Lapatinib] (partner 2 µM)", "experiment": "relative viability (nuclei count vs DMSO), 5 days (fraction); higher = more cells survive", "conditions": "first compound 0.04 µM", "method_in_brief": "(§1)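 Relative viability divides the nuclei count in treated wells by that in vehicle wells. Lung cancer cell lines were seeded in 1536-well plates, dosed by pin tool the next day, and fixed and stained after 5 days in one step with final 0.05% Triton X-100, 1% formaldehyde and 1 ug/ml Hoechst. Dosing was a single drug or a fixed anchor-drug dose plus five library-drug doses (not always all listed) in √10 steps, and values are medians of duplicate plates imaged at 4×.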"}
{"cell line": "201T", "relative viability": 1.07}
{"cell line": "NCI-H1915", "relative viability": 0.869}
{"cell line": "HCC-827", "relative viability": 0.195}
{"cell line": "LXF-289", "relative viability": 0.948}
{"cell line": "NCI-H23", "relative viability": 0.996}
{"cell line": "NCI-H1299", "relative viability": 0.844}
{"cell line": "NCI-H647", "relative viability": 1.63}
{"cell line": "CAL-12T", "relative viability": 0.611}
{"cell line": "NCI-H1651", "relative viability": 0.904}
{"cell line": "EPLC-272H", "relative viability": 1.32}
{"cell line": "NCI-H2228", "relative viability": 1.23}
{"cell line": "NCI-H1792", "relative viability": 0.827}
{"cell line": "NCI-H1355", "relative viability": 1.27}
{"cell line": "NCI-H3122", "relative viability": 1.05}
{"cell line": "NCI-H1437", "relative viability": 0.86}
{"cell line": "NCI-H1755", "relative viability": 1.31}
{"cell line": "NCI-H2023", "relative viability": 0.717}
{"cell line": "HCC-15", "relative viability": 0.837}
{"cell line": "NCI-H1944", "relative viability": 0.699}
{"cell line": "PC-14", "relative viability": 0.291}
{"cell line": "EKVX", "relative viability": 0.406}
{"cell line": "LC-2-ad", "relative viability": 0.947}
{"cell line": "NCI-H1563", "relative viability": 1.18}
{"cell line": "NCI-H2170", "relative viability": 0.275}
{"cell line": "NCI-H1975", "relative viability": 1.13}
{"cell line": "RERF-LC-KJ", "relative viability": 0.863}
{"cell line": "ABC-1", "relative viability": 1.31}
{"cell line": "SK-MES-1", "relative viability": 0.434}
{"cell line": "NCI-H650", "relative viability": 1.11}
{"cell line": "PC-3 [JPC-3]", "relative viability": 0.484}
{"compound": "O=C(Nc1cc(C(F)(F)F)cc(C(F)(F)F)c1)c1cc(Cl)ccc1O [IMD-0354] + CS(=O)(=O)CCNCc1ccc(-c2ccc3ncnc(Nc4ccc(OCc5cccc(F)c5)c(Cl)c4)c3c2)o1 [Lapatinib] (partner 2 µM)", "experiment": "relative viability (nuclei count vs DMSO), 5 days (fraction); higher = more cells survive", "conditions": "first compound 0.1265 µM", "method_in_brief": "as §1"}
{"cell line": "201T", "relative viability": 1.08}
{"cell line": "NCI-H1915", "relative viability": 0.941}
{"cell line": "HCC-827", "relative viability": 0.187}
{"cell line": "LXF-289", "relative viability": 0.895}
{"cell line": "NCI-H23", "relative viability": 1.14}
{"cell line": "NCI-H1299", "relative viability": 0.964}
{"cell line": "NCI-H647", "relative viability": 0.859}
{"cell line": "CAL-12T", "relative viability": 0.665}
{"cell line": "NCI-H1651", "relative viability": 0.803}
{"cell line": "EPLC-272H", "relative viability": 0.944}
{"cell line": "NCI-H2228", "relative viability": 1}
{"cell line": "NCI-H1792", "relative viability": 0.967}
{"cell line": "NCI-H1355", "relative viability": 1.16}
{"cell line": "NCI-H3122", "relative viability": 0.983}
{"cell line": "NCI-H1437", "relative viability": 0.69}
{"cell line": "NCI-H1755", "relative viability": 1.1}
{"cell line": "NCI-H2023", "relative viability": 0.841}
{"cell line": "HCC-15", "relative viability": 0.824}
{"cell line": "NCI-H1944", "relative viability": 0.862}
{"cell line": "PC-14", "relative viability": 0.384}
{"cell line": "EKVX", "relative viability": 0.203}
{"cell line": "LC-2-ad", "relative viability": 0.924}
{"cell line": "NCI-H1563", "relative viability": 1.01}
{"cell line": "NCI-H2170", "relative viability": 0.288}
{"cell line": "NCI-H1975", "relative viability": 0.875}
{"cell line": "RERF-LC-KJ", "relative viability": 0.981}
{"cell line": "ABC-1", "relative viability": 1.15}
{"cell line": "SK-MES-1", "relative viability": 0.528}
{"cell line": "NCI-H650", "relative viability": 0.864}
{"cell line": "PC-3 [JPC-3]", "relative viability": 0.434}
{"compound": "O=C(Nc1cc(C(F)(F)F)cc(C(F)(F)F)c1)c1cc(Cl)ccc1O [IMD-0354] + CS(=O)(=O)CCNCc1ccc(-c2ccc3ncnc(Nc4ccc(OCc5cccc(F)c5)c(Cl)c4)c3c2)o1 [Lapatinib] (partner 2 µM)", "experiment": "relative viability (nuclei count vs DMSO), 5 days (fraction); higher = more cells survive", "conditions": "first compound 0.4 µM", "method_in_brief": "as §1"}
{"cell line": "201T", "relative viability": 0.827}
{"cell line": "NCI-H1915", "relative viability": 0.605}
{"cell line": "HCC-827", "relative viability": 0.186}
{"cell line": "LXF-289", "relative viability": 0.835}
{"cell line": "NCI-H23", "relative viability": 0.475}
{"cell line": "NCI-H1299", "relative viability": 0.462}
{"cell line": "NCI-H647", "relative viability": 0.495}
{"cell line": "CAL-12T", "relative viability": 0.533}
{"cell line": "NCI-H1651", "relative viability": 0.402}
{"cell line": "EPLC-272H", "relative viability": 0.618}
{"cell line": "NCI-H2228", "relative viability": 0.632}
{"cell line": "NCI-H1792", "relative viability": 0.833}
{"cell line": "NCI-H1355", "relative viability": 0.829}
{"cell line": "NCI-H3122", "relative viability": 0.747}
{"cell line": "NCI-H1437", "relative viability": 0.317}
{"cell line": "NCI-H1755", "relative viability": 0.598}
{"cell line": "NCI-H2023", "relative viability": 0.662}
{"cell line": "HCC-15", "relative viability": 0.383}
{"cell line": "PC-14", "relative viability": 0.197}
{"cell line": "LC-2-ad", "relative viability": 0.354}
{"cell line": "NCI-H1563", "relative viability": 0.903}
{"cell line": "NCI-H2170", "relative viability": 0.255}
{"cell line": "NCI-H1975", "relative viability": 0.575}
{"cell line": "RERF-LC-KJ", "relative viability": 0.507}
{"cell line": "SK-MES-1", "relative viability": 0.377}
{"cell line": "NCI-H650", "relative viability": 0.614}
{"cell line": "PC-3 [JPC-3]", "relative viability": 0.372}
{"compound": "O=C(Nc1cc(C(F)(F)F)cc(C(F)(F)F)c1)c1cc(Cl)ccc1O [IMD-0354] + CS(=O)(=O)CCNCc1ccc(-c2ccc3ncnc(Nc4ccc(OCc5cccc(F)c5)c(Cl)c4)c3c2)o1 [Lapatinib] (partner 2 µM)", "experiment": "relative viability (nuclei count vs DMSO), 5 days (fraction); higher = more cells survive", "conditions": "first compound 1.265 µM", "method_in_brief": "as §1"}
{"cell line": "201T", "relative viability": 1.04}
{"cell line": "NCI-H1915", "relative viability": 0.761}
{"cell line": "HCC-827", "relative viability": 0.168}
{"cell line": "LXF-289", "relative viability": 0.301}
{"cell line": "NCI-H23", "relative viability": 0.183}
{"cell line": "NCI-H1299", "relative viability": 0.221}
{"cell line": "NCI-H647", "relative viability": 0.193}
{"cell line": "CAL-12T", "relative viability": 0.4}
{"cell line": "NCI-H1651", "relative viability": 0.136}
{"cell line": "EPLC-272H", "relative viability": 0.716}
{"cell line": "NCI-H2228", "relative viability": 0.306}
{"cell line": "NCI-H1792", "relative viability": 0.479}
{"cell line": "NCI-H1355", "relative viability": 0.213}
{"cell line": "NCI-H3122", "relative viability": 0.202}
{"cell line": "NCI-H1437", "relative viability": 0.122}
{"cell line": "NCI-H1755", "relative viability": 0.303}
{"cell line": "NCI-H2023", "relative viability": 0.0897}
{"cell line": "HCC-15", "relative viability": 0.241}
{"cell line": "NCI-H1944", "relative viability": 0.922}
{"cell line": "PC-14", "relative viability": 0.347}
{"cell line": "EKVX", "relative viability": 0.128}
{"cell line": "LC-2-ad", "relative viability": 0.192}
{"cell line": "NCI-H1563", "relative viability": 0.44}
{"cell line": "NCI-H2170", "relative viability": 0.252}
{"cell line": "NCI-H1975", "relative viability": 0.194}
{"cell line": "RERF-LC-KJ", "relative viability": 0.355}
{"cell line": "ABC-1", "relative viability": 1.17}
{"cell line": "SK-MES-1", "relative viability": 0.369}
{"cell line": "NCI-H650", "relative viability": 0.451}
{"cell line": "PC-3 [JPC-3]", "relative viability": 0.42}
{"compound": "O=C(Nc1cc(C(F)(F)F)cc(C(F)(F)F)c1)c1cc(Cl)ccc1O [IMD-0354] + CS(=O)(=O)CCNCc1ccc(-c2ccc3ncnc(Nc4ccc(OCc5cccc(F)c5)c(Cl)c4)c3c2)o1 [Lapatinib] (partner 2 µM)", "experiment": "relative viability (nuclei count vs DMSO), 5 days (fraction); higher = more cells survive", "conditions": "first compound 4 µM", "method_in_brief": "as §1"}
{"cell line": "201T", "relative viability": 0.333}
{"cell line": "NCI-H1915", "relative viability": 0.192}
{"cell line": "HCC-827", "relative viability": 0.145}
{"cell line": "LXF-289", "relative viability": 0.188}
{"cell line": "NCI-H23", "relative viability": 0.237}
{"cell line": "NCI-H1299", "relative viability": 0.185}
{"cell line": "NCI-H647", "relative viability": 0.0984}
{"cell line": "CAL-12T", "relative viability": 0.259}
{"cell line": "NCI-H1651", "relative viability": 0.131}
{"cell line": "EPLC-272H", "relative viability": 0.205}
{"cell line": "NCI-H2228", "relative viability": 0.241}
{"cell line": "NCI-H1792", "relative viability": 0.299}
{"cell line": "NCI-H1355", "relative viability": 0.21}
{"cell line": "NCI-H3122", "relative viability": 0.211}
{"cell line": "NCI-H1437", "relative viability": 0.194}
{"cell line": "NCI-H1755", "relative viability": 0.197}
{"cell line": "NCI-H2023", "relative viability": 0.084}
{"cell line": "HCC-15", "relative viability": 0.127}
{"cell line": "NCI-H1944", "relative viability": 0.171}
{"cell line": "PC-14", "relative viability": 0.109}
{"cell line": "EKVX", "relative viability": 0.134}
{"cell line": "LC-2-ad", "relative viability": 0.116}
{"cell line": "NCI-H1563", "relative viability": 0.415}
{"cell line": "NCI-H2170", "relative viability": 0.223}
{"cell line": "NCI-H1975", "relative viability": 0.185}
{"cell line": "RERF-LC-KJ", "relative viability": 0.265}
{"cell line": "ABC-1", "relative viability": 0.612}
{"cell line": "SK-MES-1", "relative viability": 0.236}
{"cell line": "NCI-H650", "relative viability": 0.22}
{"cell line": "PC-3 [JPC-3]", "relative viability": 0.199}
